Test results published in publication PMC5025651, “Reprofiled anthelmintics abate hypervirulent stationary-phase Clostridium difficile” (Scientific Reports, 2016).
≈ marks a conversion by molar mass, not a printed value. Like-named read-outs stand apart in the source and are kept apart here.

Assays:
[1] = system: C. difficile strain 4118 (CD4118, ATCC BAA-1870, ribotype 027); assay: MIC by broth microdilution; assay type: cell-based, Clostridium difficile; details: Clostridioides difficile, ATCCBAA1870; BHIS broth, anaerobic, 20–24 h, n = 2; read-out: MIC C. difficile 4118
[2] = system: C. difficile isolate 20110960 (ribotype 017); assay: MIC by broth microdilution; assay type: cell-based, Clostridium difficile; details: Clostridioides difficile; isolate 20110960, ribotype 017; duplicate; read-out: MIC
[3] = system: B. longum subsp. longum Strain 44B; assay: MIC by broth microdilution; assay type: cell-based; details: Bifidobacterium longum; B. longum subsp. longum 44B; LSM broth, anaerobic; duplicate; read-out: MIC
[4] = system: P. nigrescens ATCC 33563; assay: MIC by broth microdilution; assay type: cell-based; details: Prevotella nigrescens, ATCC33563; P. nigrescens ATCC 33563; supplemented Brucella broth, anaerobic; duplicate; read-out: MIC
[5] = system: C. clostridioforme ATCC 25537; assay: MIC by broth microdilution; assay type: cell-based, Clostridium clostridioforme; details: Clostridium, ATCC25537; C. clostridioforme ATCC 25537; BHIS, anaerobic; duplicate; read-out: MIC
[6] = system: L. johnsonii Strain 135-1-CHN; assay: MIC by broth microdilution; assay type: cell-based; details: Lactobacillus johnsonii, STRAIN1351CHN; L. johnsonii 135-1-CHN; CAMHB with 5% laked horse blood, ~48 h; duplicate; read-out: MIC
[7] = system: C. difficile isolate 20100422 (ribotype 054); assay: MIC by broth microdilution; assay type: cell-based, Clostridium difficile; details: Clostridioides difficile; isolate 20100422, ribotype 054; duplicate; read-out: MIC
[8] = system: P. distasonis ATCC 8503; assay: MIC by broth microdilution; assay type: cell-based; details: Parabacteroides distasonis, ATCC8503; P. distasonis ATCC 8503; supplemented Brucella broth, anaerobic; duplicate; read-out: MIC
[9] = system: C. difficile strain 4118; assay: Minimum bactericidal concentration (MBC), logarithmic- and stationary-phase cells; assay type: cell-based, Clostridium difficile; details: 20–24 h; for MBC: Clostridioides difficile, 4118, n = 2
Procedure: The procedure for MBC determination was adapted from that of Alam et al.[44]. Briefly, a single overnight colony of C. difficile strain 4118 (streaked onto blood agar plate) was suspended in BHIS and grown to OD600 ~ 0.4–0.5 (logarithmic phase) or for 24 h (stationary phase). In 96-well microtiter plates, cultures were added to two-fold serial dilutions of test compounds in BHIS and incubated for 20–24 h at 37 °C in an anaerobic chamber. […] MBC measurements were performed in duplicate.

[10] = system: C. difficile isolate 20110740 (ribotype 018); assay: MIC by broth microdilution; assay type: cell-based, Clostridium difficile; details: Clostridioides difficile; isolate 20110740, ribotype 018; duplicate; read-out: MIC
[11] = system: C. difficile isolate 20121190 (ribotype 126); assay: MIC by broth microdilution; assay type: cell-based, Clostridium difficile; details: Clostridioides difficile; isolate 20121190, ribotype 126; duplicate; read-out: MIC
[12] = system: L. plantarum ATCC 8014; assay: MIC by broth microdilution; assay type: cell-based; details: Lactiplantibacillus plantarum, ATCC8014; L. plantarum ATCC 8014; CAMHB with 5% laked horse blood, ~48 h; duplicate; read-out: MIC
[13] = system: L. reuteri Strain CF48-3A; assay: MIC by broth microdilution; assay type: cell-based, Lactobacillus reuteri; details: Limosilactobacillus reuteri; L. reuteri CF48-3A; CAMHB with 5% laked horse blood, ~48 h; duplicate; read-out: MIC
[14] = system: C. difficile isolate 20111163 (ribotype 024); assay: MIC by broth microdilution; assay type: cell-based, Clostridium difficile; details: Clostridioides difficile; isolate 20111163, ribotype 024; duplicate; read-out: MIC
[15] = system: C. difficile isolate 20121412 (ribotype 047); assay: MIC by broth microdilution; assay type: cell-based, Clostridium difficile; details: Clostridioides difficile; isolate 20121412, ribotype 047; duplicate; read-out: MIC
[16] = system: C. difficile isolate 20110961 (ribotype A12); assay: MIC by broth microdilution; assay type: cell-based, Clostridium difficile; details: Clostridioides difficile; isolate 20110961, ribotype A12; duplicate; read-out: MIC
[17] = system: C. difficile isolate 20110973 (ribotype 106); assay: MIC by broth microdilution; assay type: cell-based, Clostridium difficile; details: Clostridioides difficile; isolate 20110973, ribotype 106; duplicate; read-out: MIC
[18] = system: B. breve Strain EX336960VC19; assay: MIC by broth microdilution; assay type: cell-based; details: Bifidobacterium breve; B. breve EX336960VC19; LSM broth, anaerobic; duplicate; read-out: MIC
[19] = system: C. sporogenes ATCC 15579; assay: MIC by broth microdilution; assay type: cell-based; details: Clostridium sporogenes, ATCC15579, BHIS, anaerobic, duplicate
[20] = system: C. difficile isolate 20110566 (ribotype 020); assay: MIC by broth microdilution; assay type: cell-based, Clostridium difficile; details: Clostridioides difficile; isolate 20110566, ribotype 020; duplicate; read-out: MIC
[21] = system: B. fragilis Strain CL05T00C42; assay: MIC by broth microdilution; assay type: cell-based; details: Bacteroides fragilis; B. fragilis CL05T00C42; supplemented Brucella broth, anaerobic; duplicate; read-out: MIC
[22] = system: C. difficile isolate 20110986 (ribotype 078); assay: MIC by broth microdilution; assay type: cell-based, Clostridium difficile; details: Clostridioides difficile; isolate 20110986, ribotype 078; duplicate; read-out: MIC
[23] = system: P. aeruginosa PAO1; assay: MIC by broth microdilution; assay type: cell-based; details: Pseudomonas aeruginosa; P. aeruginosa PAO1; CAMHB, aerobic; duplicate; read-out: MIC
[24] = system: C. difficile isolate 20110869 (ribotype 001_072); assay: MIC by broth microdilution; assay type: cell-based, Clostridium difficile; details: Clostridioides difficile; isolate 20110869, ribotype 001_072; duplicate; read-out: MIC
[25] = system: C. difficile isolate 20110742 (ribotype 002); assay: MIC by broth microdilution; assay type: cell-based, Clostridium difficile; details: Clostridioides difficile; isolate 20110742, ribotype 002; duplicate; read-out: MIC
[26] = system: C. difficile isolate 20120016 (ribotype 019); assay: MIC by broth microdilution; assay type: cell-based, Clostridium difficile; details: Clostridioides difficile; isolate 20120016, ribotype 019; duplicate; read-out: MIC
[27] = system: A. baumannii M2; assay: MIC by broth microdilution; assay type: cell-based; details: Acinetobacter baumannii; A. baumannii M2; CAMHB, aerobic; duplicate; read-out: MIC
[28] = system: S. epidermidis 1457; assay: MIC by broth microdilution; assay type: cell-based; details: Staphylococcus epidermidis; S. epidermidis 1457; CAMHB, aerobic; duplicate; read-out: MIC
[29] = Hemolysis assay; assay type: cell-based; details: sheep, sheep red blood cells (3% suspension), pH 7.4; 32 µg/mL, 1 h, 37 °C; 1% Triton X-100 positive control; triplicate; read-out: Hemolysis (%)
Procedure: Sheep red blood cells (Innovative Research, Novi, MI, USA) were washed three times with PBS pH 7.4. A 3% cell suspension in PBS (100 μL) was added to test compounds in PBS (100 μL, to a final concentration of 32 μg/mL), and then incubated at 37 °C for 1 h. The plate was centrifuged at 500 × g for 10 min, and supernatants (100 μL) were transferred to a clean 96-well plate. Hemolysis was determined by measuring absorbance at 540 nm, with 1% Triton X-100 as the positive control and 0.5% DMSO in PBS as the negative control. Hemolysis assays were performed in triplicate.

[30] = system: B. thetaiotaomicron ATCC 29148; assay: microbe, parasite or virus in culture; assay type: cell-based; details: Bacteroides thetaiotaomicron, ATCC29148
[31] = system: C. difficile strain 4118; assay: Time-kill kinetics against stationary-phase cultures; assay type: cell-based, Clostridium difficile
Procedure: At t = 0, 3, 6 and 24 h, sample aliquots were withdrawn from the treated cultures and bacterial viability was scored by plating serial dilutions on BHIS agar plates. The agar plates were incubated in the anaerobic chamber for 20–24 h at 37 °C. Kinetic experiments were performed at least twice.

[32] = system: B. subtilis ATCC 6051; assay: MIC by broth microdilution; assay type: cell-based; details: Bacillus subtilis, ATCC6051; B. subtilis ATCC 6051; CAMHB, aerobic; duplicate; read-out: MIC
[33] = minimum bactericidal concentration (≥3-log reduction) for logarithmic-phase cells, read-out: MBClog
[34] = minimum bactericidal concentration (≥3-log reduction) for stationary-phase cells, read-out: MBCstat

Row | Structure (SMILES) | MIC [1] | MIC [2] | MIC [3] | MIC [4] | MIC [5] | MIC [6] | MIC [7] | MIC [8] | MBC [9, 33] | MBC [9, 34] | MIC [10] | MIC [11] | MIC [12] | MIC [13] | MIC [14] | MIC [15] | MIC [16] | MIC [17] | MIC [18] | MIC [19] | further results
1 | O=C(Nc1ccc(Oc2ccc(Cl)cc2)cc1)c1cc(Cl)cc(Cl)c1O [Compound 8] | 0.06 µg/mL (≈ 0.147 µM) | 0.06 µg/mL (≈ 0.147 µM) | 8 µg/mL (≈ 19.6 µM) | 4 µg/mL (≈ 9.79 µM) | 4 µg/mL (≈ 9.79 µM) | 32 µg/mL (≈ 78.3 µM) | 0.25 µg/mL (≈ 0.612 µM) | 4 µg/mL (≈ 9.79 µM) | 0.25 µg/mL (≈ 0.612 µM) | 1 µg/mL (≈ 2.45 µM) | 0.06 µg/mL (≈ 0.147 µM) | 0.25 µg/mL (≈ 0.612 µM) | 16 µg/mL (≈ 39.2 µM) | 16 µg/mL (≈ 39.2 µM) | 0.13 µg/mL (≈ 0.318 µM) | 0.13 µg/mL (≈ 0.318 µM) | 0.13 µg/mL (≈ 0.318 µM) | 0.03 µg/mL (≈ 0.0734 µM) | 8 µg/mL (≈ 19.6 µM) | 4 µg/mL (≈ 9.79 µM) | MIC [20]: 0.06 µg/mL (≈ 0.147 µM); MIC [21]: 16 µg/mL (≈ 39.2 µM); MIC [22]: 0.06 µg/mL (≈ 0.147 µM); MIC [23]: > 32 µg/mL; MIC [24]: 0.06 to 0.13 µg/mL (≈ 0.147 to 0.318 µM); MIC [25]: 0.06 µg/mL (≈ 0.147 µM); MIC [26]: 0.13 µg/mL (≈ 0.318 µM); MIC [27]: 32 µg/mL (≈ 78.3 µM); MIC [28]: ≤ 0.03 µg/mL; hemolysis at 1 h, 32 µg/mL [29]: < 1%; MIC ([30]; B. thetaiotaomicron ATCC 29148, supplemented Brucella broth, anaerobic, duplicate, read-out: MIC): > 32 µg/mL; log decrease in the number of CFUs ([31]; 4 × MIC, 24 h, stationary-phase CD4118): 2.4 log; time to eradicate >99.9% of viable cells ([31]; 16× MIC (rafoxanide 2 μg/mL, closantel 4 μg/mL, compound 8 1 μg/mL), stationary-phase CD4118): 24 h; MIC [32]: ≤ 0.03 µg/mL
2 | Cc1ncc([N+](=O)[O-])n1CCO [Metronidazole, metronidazole] | 0.25 µg/mL (≈ 1.46 µM) | 0.25 µg/mL (≈ 1.46 µM) | 4 to 8 µg/mL (≈ 23.4 to 46.7 µM) | 2 µg/mL (≈ 11.7 µM) | 0.06 µg/mL (≈ 0.351 µM) | > 32 µg/mL | 0.25 µg/mL (≈ 1.46 µM) | 2 µg/mL (≈ 11.7 µM) | > 32 µg/mL | > 32 µg/mL | 0.25 µg/mL (≈ 1.46 µM) | 0.13 µg/mL (≈ 0.76 µM) | > 32 µg/mL | > 32 µg/mL | 0.13 µg/mL (≈ 0.76 µM) | 0.25 µg/mL (≈ 1.46 µM) | 0.25 µg/mL (≈ 1.46 µM) | 0.25 µg/mL (≈ 1.46 µM) | > 32 µg/mL | 0.25 µg/mL (≈ 1.46 µM) | log reduction of CD4118 stationary-phase cells ([9]; at 32 μg/mL): < 3 log; MIC [20]: 0.25 µg/mL (≈ 1.46 µM); MIC [21]: 0.5 µg/mL (≈ 2.92 µM); MIC [22]: 0.13 to 0.25 µg/mL (≈ 0.76 to 1.46 µM); MIC [23]: > 32 µg/mL; MIC [24]: 0.25 µg/mL (≈ 1.46 µM); MIC [25]: 0.13 µg/mL (≈ 0.76 µM); MIC [26]: 0.25 µg/mL (≈ 1.46 µM); MIC [27]: > 32 µg/mL; MIC [28]: > 32 µg/mL; hemolysis at 1 h, 32 µg/mL [29]: < 1%; MIC [30]: 1 µg/mL (≈ 5.84 µM); log killing of CD4118 stationary-phase cells ([31]; 16× MIC (metronidazole 4 μg/mL, vancomycin 32 μg/mL), up to 24 h): < 3 log; MIC [32]: > 32 µg/mL
